The values that follow come from patent US11780893B2, “Kv1.3 blockers” (Zealand Pharma A/S, priority 2019, dated 2023).

Series [1] concerns delayed-type hypersensitivity (DTH) ear swelling response. It is filed as in vivo, rat. To be noted: CsA 10 mg/kg per os, +/- SD.
Series [2] has as its target Rat whole blood (Rattus norvegicus, UniProt P15384).
Series [3] deals with T1, Kv1.3 (Homo sapiens, UniProt P22001).
T1 construct: expressed in transfected cells; host or cells: Chinese Hamster Ovary (CHO)
T1 sequence (P22001 whole entry): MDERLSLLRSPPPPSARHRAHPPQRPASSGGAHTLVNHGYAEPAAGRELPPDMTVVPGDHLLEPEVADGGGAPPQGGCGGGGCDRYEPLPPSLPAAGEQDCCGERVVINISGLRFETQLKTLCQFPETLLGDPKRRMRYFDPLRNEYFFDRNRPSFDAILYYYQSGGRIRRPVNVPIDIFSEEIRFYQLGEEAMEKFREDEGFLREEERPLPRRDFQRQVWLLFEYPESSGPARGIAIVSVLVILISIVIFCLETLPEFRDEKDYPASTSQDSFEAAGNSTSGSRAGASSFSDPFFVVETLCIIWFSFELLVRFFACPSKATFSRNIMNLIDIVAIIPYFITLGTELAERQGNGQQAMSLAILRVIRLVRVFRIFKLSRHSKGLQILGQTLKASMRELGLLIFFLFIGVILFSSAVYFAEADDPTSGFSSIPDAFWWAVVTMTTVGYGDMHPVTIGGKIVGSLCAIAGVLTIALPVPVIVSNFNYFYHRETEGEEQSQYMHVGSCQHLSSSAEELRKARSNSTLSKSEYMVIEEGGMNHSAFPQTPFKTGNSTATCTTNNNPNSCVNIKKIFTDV
In words: cell-based. Particulars: CHO cells, whole-cell patch clamp; read-out: Potency IC50 (nM) Kv1.3.

Series [4] addresses T2, human Kv1.3 voltage-gated K+ channel (Homo sapiens, UniProt P22001).
T2 construct: host or cells: CHO-DUKX
In words: cell-based. Particulars: inhibition of thallium flux, CHO-DUKX cells with human Kv1.3; read-out: IC50.

Series [5] deals with Human peripheral blood mononuclear cells (PBMCs). In words: IL-2 release from anti-CD3 stimulated human PBMCs (Example 4b). It is filed as cell-based. Particulars: geometric mean, at least 6 replicates, read-out: anti-CD3 PBMC/IL-2 IC50. Here is the method: Human peripheral blood mononuclear cells (PBMCs) were used to assess the effects of Kv1.3 blockers on T-cell activation as determined by IL-2 release after stimulation with anti-CD3.
Human PBMCs were obtained from Precision for Medicine (Frederick, Md.). Cells from 5 donors were used. Plate-bound anti-CD3 was used to stimulate bulk T cells in the PBMC preparations. Briefly, 96-well plates were coated with anti-CD3 antibody for app. 16 hours at 5° C., using 50 μl of a 1 μg/ml anti-CD3 solution diluted in PBS. Thereafter the plates were washed twice.
Kv1.3 blockers were subsequently diluted in medium (RPMI 1640 with Glutamax-I containing, 10% v/v Fetal Bovine Serum, 1% v/v penicillin-streptomycin Solution) and added in a volume of 50 μl. The compounds indicated in Table 4b were used at concentrations ranging from […] to 1000 nM (half log dilutions, starting concentrations varying).
Finally, 50.000 PBMCs in the same medium were added to each well in a volume of 50 μl, giving a final volume of 100 μl per well. The plates were incubated for 20-24 hours in a 37° C./5% CO2 incubator. After centrifugation of the plates, 25 μl supernatant was transferred to IL-2 detection plates (MSD Human IL-2 Tissue Culture Kit, cat #K151AHB-2) and IL-2 was measures as described by the manufacturer (Meso Scale Discovery, Rockville, Md., USA).
Results are shown in Table 4b as geometric mean of IC50 values obtained from anti-CD3 stimulated human PBMC assays. All values derive from at least 6 replicates.

Series [6] is described as follows: in vivo. Particulars: male, rat, sc, 70 nmol/kg.
Series [7] deals with T3, Kv1.2 (Homo sapiens, UniProt P16389).
T3 construct: expressed in transfected cells; host or cells: Chinese Hamster Ovary (CHO)
T3 sequence (P16389 whole entry): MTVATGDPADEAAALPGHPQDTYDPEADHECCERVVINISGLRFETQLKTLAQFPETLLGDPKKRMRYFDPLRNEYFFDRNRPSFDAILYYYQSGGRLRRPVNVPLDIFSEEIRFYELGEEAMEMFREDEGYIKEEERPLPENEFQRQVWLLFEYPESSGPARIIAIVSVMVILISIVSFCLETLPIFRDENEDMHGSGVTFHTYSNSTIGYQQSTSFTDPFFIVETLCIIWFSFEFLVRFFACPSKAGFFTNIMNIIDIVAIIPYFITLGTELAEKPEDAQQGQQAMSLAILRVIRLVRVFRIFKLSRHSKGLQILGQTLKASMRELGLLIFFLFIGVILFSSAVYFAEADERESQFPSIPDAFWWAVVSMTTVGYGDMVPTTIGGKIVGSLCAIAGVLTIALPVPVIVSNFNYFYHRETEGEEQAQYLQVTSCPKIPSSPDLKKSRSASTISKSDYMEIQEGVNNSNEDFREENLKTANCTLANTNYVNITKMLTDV
The series can be described thus: cell-based. Particulars: CHO cells, whole-cell patch clamp; read-out: Potency IC50 (nM) Kv1.2. Background: Patch clamp records ionic current or voltage across a cell membrane.

Series [8] addresses T4, Kv1.1 (Homo sapiens, UniProt Q09470).
T4 construct: expressed in transfected cells; host or cells: Chinese Hamster Ovary (CHO)
In words: cell-based.

The target of series [9] is T5, Kv1.6 (Homo sapiens, UniProt P17658).
T5 construct: expressed in transfected cells; host or cells: Chinese Hamster Ovary (CHO)
T5 sequence (P17658 whole entry): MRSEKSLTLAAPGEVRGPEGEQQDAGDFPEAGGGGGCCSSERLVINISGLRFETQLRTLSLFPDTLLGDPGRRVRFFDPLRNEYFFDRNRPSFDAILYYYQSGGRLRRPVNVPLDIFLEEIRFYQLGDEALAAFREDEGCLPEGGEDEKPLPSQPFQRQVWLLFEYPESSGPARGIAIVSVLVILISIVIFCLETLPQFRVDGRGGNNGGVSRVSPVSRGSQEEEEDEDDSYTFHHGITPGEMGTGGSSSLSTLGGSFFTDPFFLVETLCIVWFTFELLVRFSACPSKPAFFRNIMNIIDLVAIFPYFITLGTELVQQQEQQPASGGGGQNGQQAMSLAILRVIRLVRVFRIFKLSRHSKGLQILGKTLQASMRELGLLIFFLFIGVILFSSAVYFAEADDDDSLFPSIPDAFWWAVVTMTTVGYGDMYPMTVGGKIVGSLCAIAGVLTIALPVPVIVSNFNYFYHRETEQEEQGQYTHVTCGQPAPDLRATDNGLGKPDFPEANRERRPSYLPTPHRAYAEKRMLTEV
The series can be described thus: cell-based.

Read-outs that look alike come from different tables or passages of the source. Bridge positions count the residues as written; N and C are the ends. Peptide text beside a SMILES is read from it.

What is called AUC(0-inf) is total exposure, with the tail of the curve extrapolated. Higher therefore signals high exposure. A word on the Cmax: it is the peak of the concentration-time curve. The term half-life denotes the time in which the quantity being followed falls by half. Low values mean rapid decline, high ones slow decline.

T4 sequence (Q09470 whole entry): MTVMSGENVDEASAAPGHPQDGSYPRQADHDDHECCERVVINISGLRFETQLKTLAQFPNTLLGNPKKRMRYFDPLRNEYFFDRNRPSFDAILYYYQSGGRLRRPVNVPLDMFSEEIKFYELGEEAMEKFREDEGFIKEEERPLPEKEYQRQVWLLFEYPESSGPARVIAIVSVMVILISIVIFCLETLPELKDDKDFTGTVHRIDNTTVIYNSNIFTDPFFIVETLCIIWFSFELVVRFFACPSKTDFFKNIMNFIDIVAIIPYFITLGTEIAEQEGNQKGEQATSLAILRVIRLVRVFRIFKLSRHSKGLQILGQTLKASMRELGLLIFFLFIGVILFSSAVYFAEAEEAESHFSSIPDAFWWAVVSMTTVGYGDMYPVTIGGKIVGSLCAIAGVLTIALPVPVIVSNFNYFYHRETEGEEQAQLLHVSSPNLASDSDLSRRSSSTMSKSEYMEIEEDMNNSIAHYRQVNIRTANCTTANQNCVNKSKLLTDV
T2 sequence (P22001 whole entry): as the sequence (P22001 whole entry) above
Chain of Rat whole blood (P15384 whole entry): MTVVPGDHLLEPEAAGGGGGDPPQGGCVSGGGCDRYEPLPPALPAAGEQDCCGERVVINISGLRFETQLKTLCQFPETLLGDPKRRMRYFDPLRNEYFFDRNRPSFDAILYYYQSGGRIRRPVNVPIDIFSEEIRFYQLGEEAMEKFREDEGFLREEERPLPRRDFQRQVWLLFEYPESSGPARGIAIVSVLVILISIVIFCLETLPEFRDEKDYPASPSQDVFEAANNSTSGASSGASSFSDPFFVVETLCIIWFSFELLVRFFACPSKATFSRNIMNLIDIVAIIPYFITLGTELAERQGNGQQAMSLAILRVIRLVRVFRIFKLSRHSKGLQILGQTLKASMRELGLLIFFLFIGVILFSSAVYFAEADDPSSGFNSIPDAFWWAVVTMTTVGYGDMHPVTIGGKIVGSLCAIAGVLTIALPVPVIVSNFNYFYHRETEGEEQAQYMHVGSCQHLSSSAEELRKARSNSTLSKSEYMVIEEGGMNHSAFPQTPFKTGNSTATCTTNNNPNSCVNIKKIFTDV

As to `CC[C@H](C)[C@@H]1NC(=O)[C@H](C)NC(=O)[C@H](CCCCN)NC(=O)[C@H](CC(C)C)NC(=O)[C@@H]2CSSC[C@@H](C(=O)N[C@@H](Cc3ccc(O)cc3)C(=O)N3CCC[C@H]3C(=O)N[C@@H](CCCNC(=N)N)C(=O)O)NC(=O)[C@H](CCCCN)NC(=O)[C@@H]3CSSC[C@H](NC(=O)[C@H](CCC(=O)O)NC(=O)[C@H](C(C)C)NC(=O)[C@H](CO)NC(=O)[C@H](C)NC(=O)[C@H](CO)NC(=O)[C@@H](NC(=O)[C@H](CCCNC(=N)N)NC(=O)[C@H](CCSC)NC(=O)[C@H](CC(=O)O)NC(=O)[C@H](CCSC)NC(=O)[C@@H](N)CC(N)=O)CSSC[C@H](NC(=O)[C@H](CCCCN)NC(=O)CNC(=O)[C@H](Cc4ccccc4)NC(=O)[C@H]([C@@H](C)CC)NC(=O)[C@H](CO)NC(=O)CNC1=O)C(=O)N[C@@H](CCSC)C(=O)N[C@@H](CC(N)=O)C(=O)N[C@@H](CCCCN)C(=O)N[C@@H](CCCCN)C(=O)N3)C(=O)N[C@@H](CCCCN)C(=O)N[C@@H](CCC(N)=O)C(=O)N[C@@H](CCCCN)C(=O)N2` [Compound 3] (H-NMDMRCSASVECKQKCLKAIGSIFGKCMNKKCKCYPR-OH; disulfide 6-27, 12-32, 16-34), the “% inhibition of ear thickness (AUC of Δ ear thickness 0-48 hours)” value in [1] (Exp #1, Kv1.3 blocker 70 nmol/kg SC 24 hrs prior to KLH challenge) is listed as 38.8 (+/−9.7) %; in series [1] (Exp #2, Kv1.3 blocker 70 nmol/kg SC 24 hrs prior to KLH challenge) it was 25.0 (+/−12.5) %; in [1] (Exp #3, Kv1.3 blocker 50 nmol/kg SC 24 hrs prior to KLH challenge), 37.3 (+/−13.8) %. Moreover, the IC50 in [2] is not above 1 nM; in [3] it was 0.27 nM; in [4], 0.3 nM; in series [5], 0.06 nM; in series [7], 409 nM; in series [8] (CHO cells, whole-cell patch clamp, read-out: Potency IC50 (nM) Kv1.1), more than 3000 nM. In series [9] (CHO cells, whole-cell patch clamp, read-out: Potency IC50 (nM) Kv1.6), the IC50 is more than 3000 nM. This molecule came in with an AUC(0-inf) in series [6] of 0.0839 µM·h. Besides, the Cmax in [6] came out at 36.9 nM. This molecule also showed a half-life in series [6] of 59.4 min. Moreover, the “Selectivity Kv1.1/Kv1.3” value in series [8] (ratio IC50[Kv1.1]/IC50[Kv1.3]) is more than 11300. For the same molecule, the “Selectivity Kv1.6/Kv1.3” value in [9] (ratio IC50[Kv1.6]/IC50[Kv1.3]) was more than 11300.
